Laboratory results reported in ChEMBL document CHEMBL4837257, “Discovery of the Oxadiazine FRM-024: A Potent CNS-Penetrant Gamma Secretase Modulator” (J Med Chem, 2021).
Active and inactive are the calls of the source. The rule behind the calls is not given here.

Experiments:
[1] = system: Rattus norvegicus; test: In vivo modulation of gamma secretase in rat assessed as reduction in Abeta40 levels in brain at 30 mg/kg, po measured at 16 hrs by ELISA relative to control; format: functional; design: scale not given: the % may be the effect or the level left
[2] = Volume of distribution at steady state in dog at 0.5 mg/kg, iv; format: ADME, organism-based, Canis lupus familiaris; conditions: in vivo, read-out: Vdss
[3] = molecular target: Cytochrome P450 3A4 (Homo sapiens, UniProt P08684); test: Inhibition of CYP3A4 in human hepatocytes upto 50 uM incubated for 72 hrs; format: ADME, cell-based, Hepatocyte
Cytochrome P450 3A4, sequence (P08684 whole entry): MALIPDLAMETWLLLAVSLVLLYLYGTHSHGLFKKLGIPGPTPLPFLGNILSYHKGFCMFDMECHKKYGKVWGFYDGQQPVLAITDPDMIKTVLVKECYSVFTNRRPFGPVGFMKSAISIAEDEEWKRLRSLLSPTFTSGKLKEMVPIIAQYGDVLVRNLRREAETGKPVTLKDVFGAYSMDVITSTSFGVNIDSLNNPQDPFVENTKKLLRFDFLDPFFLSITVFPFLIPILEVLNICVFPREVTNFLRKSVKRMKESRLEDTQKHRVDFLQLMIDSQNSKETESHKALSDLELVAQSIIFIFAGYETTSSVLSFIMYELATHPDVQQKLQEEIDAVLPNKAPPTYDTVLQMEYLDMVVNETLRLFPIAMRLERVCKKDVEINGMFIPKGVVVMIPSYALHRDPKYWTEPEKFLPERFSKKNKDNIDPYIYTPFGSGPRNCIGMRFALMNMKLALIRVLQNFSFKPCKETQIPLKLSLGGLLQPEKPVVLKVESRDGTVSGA

[4] = In vivo modulation of gamma secretase in nonhuman primate assessed as reduction in Abeta42 levels in CSF by measuring AUC(0 to 48 hrs) at 30 mg/kg, po by ELISA; format: functional, Primates, Cerebrospinal fluid; design: scale not given: the % may be the effect or the level left
[5] = system: Rattus norvegicus; test: In vivo modulation of gamma secretase in rat assessed as reduction in Abeta37 levels in brain by measuring AUC(0 to 24 hrs) at 30 mg/kg, po by ELISA; format: functional; design: scale not given: the % may be the effect or the level left
[6] = molecular target: T1, Cytochrome P450 1A2 (Homo sapiens, UniProt P05177); test: Inhibition of CYP1A2 (unknown origin); format: ADME
T1 sequence (P05177 whole entry): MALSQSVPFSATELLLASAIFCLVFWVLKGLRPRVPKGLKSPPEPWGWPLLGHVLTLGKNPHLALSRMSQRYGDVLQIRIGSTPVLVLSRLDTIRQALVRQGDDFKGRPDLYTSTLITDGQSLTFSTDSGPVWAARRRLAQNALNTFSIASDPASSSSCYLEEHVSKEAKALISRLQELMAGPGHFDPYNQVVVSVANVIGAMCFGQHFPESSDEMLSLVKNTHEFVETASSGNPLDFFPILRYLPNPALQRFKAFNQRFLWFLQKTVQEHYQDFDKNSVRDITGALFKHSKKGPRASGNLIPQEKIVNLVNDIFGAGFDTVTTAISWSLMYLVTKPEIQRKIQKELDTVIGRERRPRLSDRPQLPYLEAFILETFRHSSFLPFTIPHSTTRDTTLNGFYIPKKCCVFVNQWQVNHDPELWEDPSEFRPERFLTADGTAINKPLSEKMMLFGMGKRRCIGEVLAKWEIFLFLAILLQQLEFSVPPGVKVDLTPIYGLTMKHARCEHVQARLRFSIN

[7] = system: Rattus norvegicus; test: In vivo modulation of gamma secretase in rat assessed as reduction in Abeta42 levels in brain at 30 mg/kg, po measured after 6 hrs by ELISA relative to control; format: functional; design: scale not given: the % may be the effect or the level left
[8] = Toxicity in rat assessed as effect on cardiac compliance by telemetry; conditions: in vivo
[9] = Toxicity in guinea pig assessed as effect on repolarization in heart by Langendorff test; format: tissue-based, Cavia porcellus; conditions: in vivo
[10] = Volume of distribution at steady state in rat at 1 mg/kg, iv; format: ADME, organism-based; conditions: in vivo, read-out: Vdss
[11] = In vivo modulation of gamma secretase in nonhuman primate assessed as reduction in Abeta40 levels in CSF at 30 mg/kg, po measured after 12 hrs by ELISA relative to control; format: functional, Primates, Cerebrospinal fluid; design: scale not given: the % may be the effect or the level left
[12] = Clearance in rat blood relative to hepatic blood flow; format: ADME, tissue-based
[13] = Half life in dog at 0.5 mg/kg, iv; format: ADME, organism-based, Canis lupus familiaris; conditions: in vivo
[14] = Toxicity in human cardiomyocyte assessed as change in cell health parameters upto 10 uM; conditions: stem cell-derived cardiomyocyte
[15] = molecular target: Prostaglandin G/H synthase 1 (Homo sapiens) (UniProt P23219); test: Effect on COX1 activity (unknown origin)
Prostaglandin G/H synthase 1 (Homo sapiens), sequence (P23219 whole entry): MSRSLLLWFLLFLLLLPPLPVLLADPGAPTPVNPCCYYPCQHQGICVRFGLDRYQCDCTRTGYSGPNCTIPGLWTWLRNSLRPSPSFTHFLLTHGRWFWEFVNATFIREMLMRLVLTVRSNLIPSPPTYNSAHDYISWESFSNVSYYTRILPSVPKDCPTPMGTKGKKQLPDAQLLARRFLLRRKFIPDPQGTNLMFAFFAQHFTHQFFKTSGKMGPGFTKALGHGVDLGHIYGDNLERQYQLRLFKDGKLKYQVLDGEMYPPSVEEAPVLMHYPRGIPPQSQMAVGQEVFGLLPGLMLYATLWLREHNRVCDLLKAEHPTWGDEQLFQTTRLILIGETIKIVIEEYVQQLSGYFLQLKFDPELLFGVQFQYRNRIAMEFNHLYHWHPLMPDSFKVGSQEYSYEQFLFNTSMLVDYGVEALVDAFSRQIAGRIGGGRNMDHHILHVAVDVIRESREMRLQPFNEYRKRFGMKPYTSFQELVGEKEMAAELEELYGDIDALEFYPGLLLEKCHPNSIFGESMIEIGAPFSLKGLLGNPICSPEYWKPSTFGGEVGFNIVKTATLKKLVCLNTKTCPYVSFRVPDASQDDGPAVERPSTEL

[16] = Bioavailability in rat at 1 mg/kg, iv; format: ADME, organism-based; conditions: in vivo
[17] = molecular target: T2, Cytochrome P450 2C8 (Homo sapiens, UniProt P10632); test: Inhibition of CYP2C8 (unknown origin); format: ADME
T2 sequence (P10632 whole entry): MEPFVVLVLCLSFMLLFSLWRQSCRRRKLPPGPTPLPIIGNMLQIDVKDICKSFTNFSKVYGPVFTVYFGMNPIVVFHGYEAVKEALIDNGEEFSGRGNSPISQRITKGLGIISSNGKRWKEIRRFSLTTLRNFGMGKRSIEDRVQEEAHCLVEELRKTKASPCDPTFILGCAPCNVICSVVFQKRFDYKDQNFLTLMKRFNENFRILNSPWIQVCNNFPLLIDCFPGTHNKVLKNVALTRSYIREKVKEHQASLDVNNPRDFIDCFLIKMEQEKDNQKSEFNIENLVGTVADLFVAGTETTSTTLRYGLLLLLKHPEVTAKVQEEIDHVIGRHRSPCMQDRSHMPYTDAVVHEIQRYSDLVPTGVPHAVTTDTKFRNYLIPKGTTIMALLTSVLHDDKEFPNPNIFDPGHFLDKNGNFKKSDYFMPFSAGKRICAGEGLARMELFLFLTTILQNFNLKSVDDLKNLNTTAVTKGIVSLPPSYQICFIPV

[18] = Clearance in rat at 1 mg/kg, iv; format: ADME, organism-based; conditions: in vivo
[19] = Toxicity in rat assessed as effect on arterial pressures by telemetry; conditions: in vivo
[20] = Bioavailability in dog at 0.5 mg/kg, iv; format: ADME, organism-based, Canis lupus familiaris; conditions: in vivo
[21] = system: Rattus norvegicus; test: In vivo modulation of gamma secretase in rat assessed as reduction in Abeta37 levels in CSF by measuring AUC(0 to 24 hrs) at 30 mg/kg, po by ELISA; format: functional, Cerebrospinal fluid; design: scale not given: the % may be the effect or the level left
[22] = Toxicity in rat assessed as effect on left ventricular filling pressures by telemetry; conditions: in vivo
[23] = Apparent permeability across apical to basolateral side in MDCK-MDR1 cells; format: ADME, cell-based, Canis lupus familiaris; conditions: dog
[24] = Toxicity in rat assessed as effect on cardiac output by telemetry; conditions: in vivo
[25] = AUClast in dog at 10 mg/kg, po; format: ADME, organism-based, Canis lupus familiaris; design: route oral, time 0 - last, dose 10 mg/kg; conditions: in vivo
[26] = molecular target: Cytochrome P450 2C9 (Homo sapiens, UniProt P11712); test: Inhibition of CYP2C9 (unknown origin); format: ADME
Cytochrome P450 2C9, sequence (P11712 whole entry): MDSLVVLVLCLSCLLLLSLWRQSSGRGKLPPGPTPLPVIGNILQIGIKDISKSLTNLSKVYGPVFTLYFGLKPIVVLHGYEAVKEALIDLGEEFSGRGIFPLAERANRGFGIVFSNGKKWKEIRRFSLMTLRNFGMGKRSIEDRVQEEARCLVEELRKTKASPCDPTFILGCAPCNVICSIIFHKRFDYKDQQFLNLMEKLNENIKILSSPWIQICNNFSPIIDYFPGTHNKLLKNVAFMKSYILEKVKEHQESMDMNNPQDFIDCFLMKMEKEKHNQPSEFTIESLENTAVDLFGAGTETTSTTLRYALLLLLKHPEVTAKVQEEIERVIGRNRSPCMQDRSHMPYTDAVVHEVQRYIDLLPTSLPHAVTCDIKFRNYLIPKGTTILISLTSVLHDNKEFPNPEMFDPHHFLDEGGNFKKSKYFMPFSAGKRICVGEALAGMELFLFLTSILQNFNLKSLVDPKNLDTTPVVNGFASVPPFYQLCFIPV

[27] = system: Rattus norvegicus; test: In vivo modulation of gamma secretase in rat assessed as reduction in Abeta40 levels in brain by measuring AUC(0 to 24 hrs) at 30 mg/kg, po by ELISA; format: functional; design: scale not given: the % may be the effect or the level left
[28] = system: Rattus norvegicus; test: In vivo modulation of gamma secretase in rat assessed as reduction in Abeta40 levels in CSF by measuring AUC(0 to 24 hrs) at 30 mg/kg, po by ELISA; format: functional, Cerebrospinal fluid; design: scale not given: the % may be the effect or the level left
[29] = Clearance in nonhuman primate blood relative to hepatic blood flow; format: ADME, tissue-based; conditions: primates
[30] = Half life in rat at 1 mg/kg, iv; format: ADME, organism-based; conditions: in vivo
[31] = Half life in nonhuman primate at 1 mg/kg, iv; format: ADME, organism-based; conditions: primates, in vivo
[32] = Toxicity in guinea pig assessed as effect on signal conduction function in heart by Langendorff test; format: tissue-based, Cavia porcellus; conditions: in vivo
[33] = system: Rattus norvegicus; test: In vivo modulation of gamma secretase in rat assessed as reduction in Abeta42 levels in CSF at 30 mg/kg, po measured after 6 hrs by ELISA relative to control; format: functional, Cerebrospinal fluid; design: scale not given: the % may be the effect or the level left
[34] = organism: Homo sapiens; test: Inhibition of sodium channel (unknown origin) at 10 uM relative to control
[35] = AUClast in rat at 3 mg/kg, po; format: ADME, organism-based; design: time 0 - last, route oral, dose 3 mg/kg; conditions: in vivo
[36] = Bioavailability in nonhuman primate at 1 mg/kg, iv; format: ADME, organism-based; conditions: primates, in vivo
[37] = system: Rattus norvegicus; test: In vivo modulation of gamma secretase in rat assessed as reduction in Abeta42 levels in brain at 30 mg/kg, po measured at 16 hrs by ELISA relative to control; format: functional; design: scale not given: the % may be the effect or the level left

Vd [2]: 0.8 L/kg | inhibition (INH) [3]: Not Active | IC50 [6]: ≥ 14 µM | Vd [10]: 2.4 L/kg | CL [12]: < 20% | half-life [13]: 2.9 h | Activity [15]: inactive | bioavailability [16]: 86% | IC50 [17]: 2.6 µM | clearance [18]: 3.1 mL/min/kg | bioavailability [20]: 66% | Papp A→B [23]: 34 ×10⁻⁶ cm/s | AUC(0-t) [25]: 32.9 µM·h | IC50 [26]: ≥ 14 µM | CL [29]: < 20% | half-life [30]: 8.7 h | half-life [31]: 3.9 h | inhibition [34]: > 50% | AUC(0-t) [35]: 11.6 µM·h | bioavailability [36]: 113%
SMILES: COc1nc(C2=NOC(C3CC3)C(c3ccc(Cl)cc3)N2)ccc1-n1cnc(C)c1 (configuration not stated)
Activity [1]: 36% | Activity [4]: 63% | Activity [5]: 88% | Activity [7]: 56% | Activity [8]: Non-Toxic | Activity [9]: Non-Toxic | Activity [11]: 57% | Activity [14]: Non-Toxic | Activity [19]: Non-Toxic | Activity [21]: 380% | Activity [22]: Non-Toxic | Activity [24]: Non-Toxic | Activity [27]: 25% | Activity [28]: 48% | Activity [32]: Non-Toxic | Activity [33]: 88% | Activity [37]: 50%
